Tests used:
[1] = tested on: HeLa cells (HeLa-Luc) expressing luciferase; experiment: Luc siRNA delivery, luminescence intensity in luciferase-expressing HeLa cells; format: cell-based; settings: Luc siRNA LNP 5 nM/well, 24 hours, FIG. 3
Protocol: The test was conducted by delivering siRNA molecules, which inhibit the expression of luciferase enzyme, into engineered HeLa cells (HeLa-Luc) expressing luciferase using each lipid nanoparticle synthesized with various amine headgroups (Compound 1 to Compound 5, Compound 11, and Compound 12). The expression of the gene was confirmed by measuring the luminescence intensity.
Specifically, lipid nanoparticles encapsulated with Luc siRNAs (SEQ ID NOs: 4 and 5) at a concentration of 5 nM/well (based on siRNA concentration) were treated into the Hella cell line (Nexel, Korea) seeded in 96-well plate at […]. After 24 hours, the cells were treated with 100 μl/well of Bright-Glo™ luciferase assay solution (promega, USA) and left at room temperature for 10 minutes, and then the luminescence intensity of the lysed cells was measured using an Infinite M200 plate reader (Tecan, USA) (FIG. 3).

hepatocytes (HeLa) = experiment: GFP mRNA delivery, fluorescence intensity of lysed cells; format: cell-based; settings: GFP mRNA LNP 0.1 μg/well, 24 hours, FIG. 4
Protocol: The test was conducted by delivering GFP mRNA molecules into hepatocytes (HeLa) using each lipid nanoparticle synthesized with various amine headgroups (Compound 1 to Compound 5, Compound 11, and Compound 12). The expression of the gene was confirmed by measuring the […] intensity.
Specifically, lipid nanoparticles encapsulated with 100 ng GFP mRNA (SEQ ID NO: 6) at a concentration of 0.1 μg/well (based on mRNA concentration) were treated into the hepatocyte line (Nexel, Korea) seeded in 96-well plate at 1×10^5 cells/well. After 24 hours, the cells were treated with 100 μl/well of cell lysis buffer (Thermofischer, US) and left at room temperature for 10 minutes, and then the fluorescence intensity of the lysed cells was measured using an Infinite M200 plate reader (Tecan, USA) (FIG. 4).

C57BL/6 mice [2] = experiment: Luc mRNA delivery via intravenous injection, bioluminescence by IVIS; format: in vivo; settings: 0.1 mg/kg Luc mRNA, 3 hours, SM-102 control, FIG. 7
Protocol: To investigate the mRNA delivery of the 221-SS lipid nanoparticles, luciferase mRNA was delivered into mice, and gene expression was confirmed by bioluminescence.
Specifically, 221-SS 3 tail lipid nanoparticles encapsulated with Luc mRNA (SEQ ID NO: 1) were manufactured by the method of Example 2-3 above. The prepared lipid nanoparticles were injected intravenously into 7-week-old C57BL/6 mice at a dose of 0.1 mg/kg (based on mRNA), and 3 hours later, luciferin 0.25 mg/kg was administered intraperitoneally and bioluminescence was confirmed by IVIS (PerkinElmer, USA).
Next, in order to confirm the effect of the number of disulfide bond chains (tails), an in vivo assay using lipid nanoparticles encapsulated with 2 μg (0.1 mg/kg) of Luc mRNA (SEQ ID NO: 1) containing either 221-SS 3-tail (Compound 5) or 221-SS 4-tail (Compound 6) was performed via intravenous injection. The same experiment was also performed using lipid nanoparticles manufactured from a 1:1 mixture of 221-SS 3 chain and 221-SS 4 chain, wherein SM-102, FDA-approved ionizable lipid, was used as a control group.
Specifically, the respective lipid nanoparticles were injected intravenously into 7-week-old C57BL/6 mice at a dose of 0.1 mg/kg (based on mRNA), and 3 hours later, luciferin 0.25 mg/kg was administered intraperitoneally and bioluminescence was confirmed by IVIS (PerkinElmer, USA).

C57BL/6 mice [3] = experiment: Luc mRNA delivery via intramuscular injection, bioluminescence by IVIS; format: in vivo; settings: 0.1 mg/kg Luc mRNA, 3 hours, SM-102 control, FIG. 9
Protocol: Luc mRNA (SEQ ID NO: 1) was delivered to mice by intramuscular injection, and gene expression was confirmed by bioluminescence.
Specifically, lipid nanoparticles (221-SS 3 tail, 221-SS 4 tail alone and mixed) containing Luc mRNA were manufactured, as described above, followed by intramuscular injection into C57BL/6 mice at a concentration of 0.1 mg/kg (based on mRNA). After 3 hours, luciferin 0.25 mg/kg was administered intraperitoneally and bioluminescence was confirmed by IVIS (PerkinElmer, USA).

| SMILES | luminescence intensity (Luc siRNA delivery) [1] | fluorescence intensity (GFP mRNA delivery) (hepatocytes (HeLa)) | bioluminescence according to number of chains (C57BL/6 mice [2]) | bioluminescence according to number of chains (C57BL/6 mice [3]) |
| --- | --- | --- | --- | --- |
| CCCCCCCCCCCCSSCCN(CCSSCCCCCCCCCCCC)CCN(C)C [Compound 1] | higher efficiency | higher efficiency |  |  |
| CCCCCCCCCCCCSSCCNCCCN(C)CCCN(CCSSCCCCCCCCCCCC)CCSSCCCCCCCCCCCC [Compound 5] | higher efficiency | higher efficiency | better effects than the negative control | superior to the negative control |
| CCCCCCCCCCCCSSCCN(CCCN(C)CCCN(CCSSCCCCCCCCCCCC)CCSSCCCCCCCCCCCC)CCSSCCCCCCCCCCCC [Compound 6] |  |  | better effects than the negative control | superior to the negative control |

— US20260000624A1, “IONIZABLE LIPID CONTAINING BIODEGRADABLE DISULFIDE BOND AND LIPID NANOPARTICLES COMPRISING SAME” (ST PHARM CO., LTD., priority 2022, published 2026)
